In the NIST ThermoML archive (doi:10.1016/j.fluid.2010.01.002):
Numbers after ± are expanded uncertainties.

Experiments:
[1] = refractive index (Na D-line) (dimensionless); conditions: 101.33 kPa, Liquid, Standard Abbe refractometry
[2] = 101.33 kPa, Liquid; for viscosity: Capillary tube (Ostwald / Ubbelohde) method; for mass density: Vibrating tube method
[3] = mn = molality of the nth substance listed, in mol/kg; conditions: 101 kPa, Liquid, Vibrating tube method

COS(=O)(=O)[O-].Cn1cc[n+](C)c1 [1,3-dimethylimidazolium methylsulfate]
Conditions | mass density, [2] [kg/m3] | refractive index, [1] | viscosity, [2] [mPa·s]
298.15 K | 1341.52 ± 0.52 | 1.481 ± 0.0004 | 72.16 ± 0.59
308.15 K | 1334.05 ± 0.52 | 1.4782 ± 0.0004 | 54.42 ± 0.3
318.15 K | 1324.8 ± 0.51 | 1.475 ± 0.0004 | 31.75 ± 0.22
328.15 K | 1320.61 ± 0.5 | 1.4732 ± 0.0004 | 22.75 ± 0.15

CN(C)C=O [dimethylformamide]
Conditions | mass density, [2] [kg/m3] | refractive index, [1] | viscosity, [2] [mPa·s]
298.15 K | 943.8 ± 0.1 | 1.4267 ± 0.0004 | 0.8605 ± 0.0067
308.15 K | 934.45 ± 0.11 | 1.4225 ± 0.0004 | 0.7712 ± 0.0063
318.15 K | 924.75 ± 0.11 | 1.418 ± 0.0004 | 0.6975 ± 0.006
328.15 K | 914.9 ± 0.11 | 1.4144 ± 0.0004 | 0.6374 ± 0.0058

COS(=O)(=O)[O-].Cn1cc[n+](C)c1 [1,3-dimethylimidazolium methylsulfate] + CO
mass density [kg/m3], [3]
Conditions | 298.15 K | 308.15 K | 318.15 K | 328.15 K
m1 = 0.0108 | 787.65 ± 0.13 | 778.14 ± 0.13 | 768.55 ± 0.13 | 758.82 ± 0.14
m1 = 0.0199 | 788.47 ± 0.13 | 778.98 ± 0.13 | 769.42 ± 0.13 | 759.7 ± 0.14
m1 = 0.0341 | 789.69 ± 0.13 | 780.24 ± 0.13 | 770.71 ± 0.13 | 761.02 ± 0.14
m1 = 0.0419 | 790.3 ± 0.13 | 780.9 ± 0.13 | 771.38 ± 0.13 | 761.68 ± 0.14
m1 = 0.0531 | 791.11 ± 0.12 | 781.85 ± 0.13 | 772.32 ± 0.13 | 762.63 ± 0.14
m1 = 0.0711 | 792.35 ± 0.12 | 783.26 ± 0.13 | 773.6 ± 0.13 | 764.11 ± 0.13
m1 = 0.0929 | 794.09 ± 0.12 | 784.9 ± 0.13 | 775.34 ± 0.13 | 765.65 ± 0.13
m1 = 0.1212 | 796.29 ± 0.12 | 787.16 ± 0.13 | 777.61 ± 0.13 | 767.99 ± 0.13
m1 = 0.1679 | 799.9 ± 0.12 | 790.82 ± 0.13 | 781.31 ± 0.13 | 771.8 ± 0.13
m1 = 0.2084 | 802.98 ± 0.12 | 793.97 ± 0.12 | 784.46 ± 0.13 | 775.01 ± 0.13
m1 = 0.2504 | 806.12 ± 0.12 | 797.15 ± 0.12 | 787.7 ± 0.13 | 778.32 ± 0.13
m1 = 0.2973 | 809.59 ± 0.12 | 800.65 ± 0.12 | 791.16 ± 0.13 | 781.85 ± 0.13
m1 = 0.3949 | 816.69 ± 0.12 | 807.86 ± 0.12 | 798.36 ± 0.13 | 789.21 ± 0.13
m1 = 0.4965 | 823.95 ± 0.12 | 815.03 ± 0.12 | 805.55 ± 0.12 | 796.68 ± 0.13
m1 = 0.5976 | 831 ± 0.11 | 822.1 ± 0.12 | 812.65 ± 0.12 | 803.73 ± 0.12
m1 = 0.7303 | 839.93 ± 0.11 | 830.93 ± 0.12 | 821.45 ± 0.12 | 812.4 ± 0.12
m1 = 0.9907 | 856.57 ± 0.11 | 847.45 ± 0.11 | 838.09 ± 0.12 | 828.74 ± 0.12

COS(=O)(=O)[O-].Cn1cc[n+](C)c1 [1,3-dimethylimidazolium methylsulfate] + CN(C)C=O
mass density [kg/m3], [3]
Conditions | 298.15 K | 308.15 K | 318.15 K | 328.15 K
m1 = 0.0143 | 945.09 ± 0.1 | 935.57 ± 0.11 | 925.94 ± 0.11 | 916.21 ± 0.11
m1 = 0.0192 | 945.45 ± 0.1 | 935.93 ± 0.11 | 926.32 ± 0.11 | 916.62 ± 0.11
m1 = 0.0305 | 946.29 ± 0.1 | 936.8 ± 0.11 | 927.22 ± 0.11 | 917.63 ± 0.11
m1 = 0.0455 | 947.35 ± 0.1 | 937.9 ± 0.11 | 928.37 ± 0.11 | 918.8 ± 0.11
m1 = 0.06 | 948.34 ± 0.1 | 938.95 ± 0.11 | 929.46 ± 0.11 | 919.9 ± 0.11
m1 = 0.0821 | 949.86 ± 0.1 | 940.49 ± 0.11 | 930.98 ± 0.11 | 921.44 ± 0.11
m1 = 0.1125 | 951.98 ± 0.1 | 942.64 ± 0.11 | 933.15 ± 0.11 | 923.55 ± 0.11
m1 = 0.1679 | 955.78 ± 0.1 | 946.48 ± 0.11 | 937.03 ± 0.11 | 927.44 ± 0.11
m1 = 0.2459 | 961 ± 0.1 | 951.8 ± 0.11 | 942.42 ± 0.11 | 932.69 ± 0.11
m1 = 0.3069 | 964.96 ± 0.1 | 955.78 ± 0.11 | 946.45 ± 0.11 | 936.8 ± 0.11
m1 = 0.6259 | 984.18 ± 0.1 | 975.15 ± 0.11 | 965.75 ± 0.11 | 956.63 ± 0.11

CC#N [acetonitrile]
Conditions | mass density, [2] [kg/m3] | refractive index, [1] | viscosity, [2] [mPa·s]
298.15 K | 776.59 ± 0.13 | 1.3411 ± 0.0004 | 0.3431 ± 0.0047
308.15 K | 765.76 ± 0.14 | 1.3365 ± 0.0004 | 0.3171 ± 0.0046
318.15 K | 754.67 ± 0.14 | 1.3327 ± 0.0004 | 0.2918 ± 0.0046
328.15 K | 743.6 ± 0.14 | 1.3259 ± 0.0004 | 0.268 ± 0.0045
